Assay results taken from article PMC5384453, “A multi-functional PEGylated gold(III) compound: potent anti-cancer properties and self-assembly into nanostructures for drug co-delivery” (Chemical Science, 2016).
Like-named read-outs stand apart in the source and are kept apart here.

Experiments:
[1] = system: CCD-19Lu; assay: In vitro cytotoxicity, MTT assay; format: cell-based, human; conditions: 72 h incubation
Method: (§1) In vitro cytotoxicity assays. HeLa, NCI-H460, HCT116, A2780, A2780cis and
(§2) cells), respectively, were seeded in 96-well plates for 24 h. The cells were then treated with a serial concentration of gold(III) complexes and incubated at 37 °C under a 5% CO2 atmosphere for 72 h. For nanostructures of 1, 2 and NC1, they were dissolved in
(§3) cisplatin were dissolved in culture medium-DMSO solution mixture (99:1, v/v).
(§4) After incubation for 72 h, MTT in PBS solution (5 mg/mL, 10 μL) was added to each well. The plates were incubated at 37 °C under a 5% CO2 atmosphere for another 4 h, and the cells were lysed by the addition of SDS solution (10%, w/w) with 0.01 M HCl (100 μL). After incubation in dark at 37 °C overnight, the cell viability after treatment was determined by a microtitre plate reader monitoring at the absorbance at 590 nm,

[2] = system: A2780cis; assay: In vitro cytotoxicity, MTT assay; format: cell-based, human
Method: as §1, §2, §3, §4

[3] = system: HCT116; assay: In vitro cytotoxicity, MTT assay; format: cell-based, human
Method: as §1, §2, §3, §4

[4] = system: A2780adr; assay: In vitro cytotoxicity, MTT assay; format: cell-based, human; conditions: for IC50: A2780adr
Method: as §1, §2, §3, §4

[5] = system: A2780; assay: In vitro cytotoxicity, MTT assay; format: cell-based, human
Method: as §1, §2, §3, §4

[6] = system: NCI-H460; assay: In vitro cytotoxicity, MTT assay; format: cell-based, human
Method: as §1, §2, §3, §4

[7] = system: MIHA; assay: In vitro cytotoxicity, MTT assay; format: cell-based
Method: as §1, §2, §3, §4

[8] = system: HCT116 cells; assay: Hydrolysis in live cells, UPLC-QTOF-MS of cell lysates; format: in vitro ADME, human; conditions: 2 μM, 24 h
Method: Hydrolysis of the gold(III) complexes in live cells was examined by ultra-performance liquid chromatography coupled quadrupole-time-of-flight mass spectrometry (UPLC-QTOF-MS). Colon cancer cells (HCT116) were treated with 1, 2 and 3 (2 μM) for 24 h, harvested and lysed in an acetonitrile–water solution mixture (3 : 1, v/v) prior to UPLC-QTOF-MS analysis. […] Therefore, the peak is attributable to the major metabolite of 1 formed in HCT116 cells. […] This should be attributable to the higher stability of the amide bond versus the ester bond in vitro. […]
which reflected the amount of blue formazan formed. IC50 values were then determined by CompuSyn S6 from three independent measurements.
Study on the release of hydrolyzed product from 1 and 2 in aqueous buffer solutions by ICP-MS. The nanostructures of gold(III) complex was dissolved in PBS solution (pH 7.4; 1 mg/mL) or sodium acetate buffer solution (pH 4.0; 1 mg/mL) and was dialyzed against 1 L of the buffer solution at 37 °C using semipermeable minidialysis tubes (molecular weight cut-off = 1,000 Da; GE Healthcare). At a predetermined time, an aliquot of solution was removed and dissolved in HNO3/HCl solution mixture (9:1, v/v; volume of aliquot: volume of acid mixture = 1:3). The solution mixture was heated at 65 °C with shaking overnight, and the gold content was determined by ICP-MS from three independent aliquots.
Study on the hydrolysis of 1 and 2 in aqueous buffer solutions by 1H NMR. […]
The flow rate was 0.4 mL/min and the injection volume was 2 µL. The UPLC-QTOF-MS chromatograms of 1, 3, 4 and solvent control in acetonitrile were also recorded for the interpretation of UPLC-QTOF-MS chromatograms of the cell lysate. […]
Au1a (2 µM; with 1 vol% DMSO). […] An aliquot of the cell suspension was subjected to Bio-rad protein assay with a microtitre plate reader at the absorbance at 595 nm, using bovine serum albumin as the protein standard. […] The solution mixture was heated at 65 °C with shaking overnight, and the gold content was determined by ICP-MS. […]

[9] = system: HeLa; assay: In vitro cytotoxicity, MTT assay; format: cell-based, human; conditions: for IC50: HeLa
Method: as §1, §2, §3, §4

[10] = system: NCM460; assay: In vitro cytotoxicity, MTT assay; format: cell-based, human; conditions: 72 h incubation
Method: as §1, §2, §3, §4

[11] = 72 h, read-out: Total dose at IC50
[12] = MTT assay, 72 h incubation, read-out: IC50

## [Au(TPP–COO–PEG5000–OCH3)]Cl [Compound 1]
[1]
  IC50: 15.2 ± 1.93 µM
[2]; A2780cis, MTT assay, 72 h incubation
  IC50: 0.64 ± 0.03 µM
[2]; IC50 of A2780cis cells / IC50 of A2780 cells
  Resistance found in A2780cis: 1.27
[2]; IC50 of CCD-19Lu cells / IC50 of A2780cis
  Toxicity toward cancer cells compared to that toward CCD-19Lu cells, A2780cis: 23.8
[2]; IC50 of MIHA cells / IC50 of A2780cis
  Toxicity toward cancer cells compared to that toward MIHA cells, A2780cis: 22.7
[2]; IC50 of NCM460 cells / IC50 of A2780cis
  Toxicity toward cancer cells compared to that toward NCM460 cells, A2780cis: 25.6
[3]; HCT116, MTT assay, 72 h incubation
  IC50: 0.39 ± 0.03 µM
[3]; IC50 of CCD-19Lu cells / IC50 of HCT-116
  Toxicity toward cancer cells compared to that toward CCD-19Lu cells, HCT-116: 39.0
[3]; IC50 of MIHA cells / IC50 of HCT-116
  Toxicity toward cancer cells compared to that toward MIHA cells, HCT-116: 37.2
[3]; IC50 of NCM460 cells / IC50 of HCT-116
  Toxicity toward cancer cells compared to that toward NCM460 cells, HCT-116: 42.1
[4]; 72 h, read-out: 1 at IC50
  IC50: 1.51 µM
[4]; [11]
  IC50: 1.51 µM
[4]; [12]
  IC50: 1.51 ± 0.4 µM
[4]; IC50 of A2780adr cells / IC50 of A2780 cells
  Resistance found in A2780adr: 2.94
[4]; IC50 of CCD-19Lu cells / IC50 of A2780adr
  Toxicity toward cancer cells compared to that toward CCD-19Lu cells, A2780adr: 10.1
[4]; IC50 of MIHA cells / IC50 of A2780adr
  Toxicity toward cancer cells compared to that toward MIHA cells, A2780adr: 9.1
[4]; IC50 of NCM460 cells / IC50 of A2780adr
  Toxicity toward cancer cells compared to that toward NCM460 cells, A2780adr: 10.9
[5]; A2780, MTT assay, 72 h incubation
  IC50: 0.51 ± 0.09 µM
[5]; IC50 of CCD-19Lu cells / IC50 of A2780
  Toxicity toward cancer cells compared to that toward CCD-19Lu cells, A2780: 29.8
[5]; IC50 of MIHA cells / IC50 of A2780
  Toxicity toward cancer cells compared to that toward MIHA cells, A2780: 28.4
[5]; IC50 of NCM460 cells / IC50 of A2780
  Toxicity toward cancer cells compared to that toward NCM460 cells, A2780: 32.2
[6]; IC50 of CCD-19Lu cells / IC50 of NCI-H460
  Toxicity toward cancer cells compared to that toward CCD-19Lu cells, NCI-H460: 17.9
[6]; IC50 of MIHA cells / IC50 of NCI-H460
  Toxicity toward cancer cells compared to that toward MIHA cells, NCI-H460: 17.1
[6]; IC50 of NCM460 cells / IC50 of NCI-H460
  Toxicity toward cancer cells compared to that toward NCM460 cells, NCI-H460: 19.3
[6]; NCI-H460, MTT assay, 72 h incubation
  IC50: 0.85 ± 0.07 µM
[7]; 72 h, read-out: 1 at IC50
  IC50: 14.5 µM
[7]; [11]
  IC50: 14.5 µM
[7]; [12]
  IC50: 14.5 ± 2.55 µM
[8]
  hydrolysis / release of [Au(TPP–COOH)]+ in cells: hydrolysis of the ester bond of 1 in HCT116 cells to form [Au(TPP–COOH)]^+
[9]; 72 h, read-out: 1 at IC50
  IC50: 1.91 µM
[9]; [11]
  IC50: 1.91 µM
[9]; [12]
  IC50: 1.91 ± 0.48 µM
[9]; IC50 of CCD-19Lu cells / IC50 of HeLa
  Toxicity toward cancer cells compared to that toward CCD-19Lu cells, HeLa: 8.0
[9]; IC50 of MIHA cells / IC50 of HeLa
  Toxicity toward cancer cells compared to that toward MIHA cells, HeLa: 7.6
[9]; IC50 of NCM460 cells / IC50 of HeLa
  Toxicity toward cancer cells compared to that toward NCM460 cells, HeLa: 8.6
[10]
  IC50: 16.4 ± 2.45 µM
